In US6858620B2, “Condensed pyridoindole derivatives” (Lilly ICOS, LLC, priority 2000, dated 2005) one finds IC50 and melting point data, which are given here for 11 compounds.

In one series the target is T1, human recombinant PDE5 (Homo sapiens, UniProt O76074).
T1 construct: host or cells: Saccharomyces cerevisiae strain BJ2-54 (ATCC 74465), described as an exemplary method
The experiment in a line: Inhibitory effect on cGMP-PDE (PDE5 IC50, one-step assay). It is filed as biochemical. The note with it: in vitro, 0.15 μM 8-[H3]-cGMP, 30 minutes incubation. As for the experimental part: The compounds of structural formula (I) were tested for an ability to inhibit PDE5. The ability of a compound to inhibit PDE5 activity is related to the IC50 value for the compound, i.e., the concentration of inhibitor required for 50% inhibition of enzyme activity. The IC50 value for compounds of structural formula (I) were determined using recombinant human PDE5.
cGMP-PDE activity of compounds of the present invention was measured using a one-step assay adapted from Wells et al., Biochim. Biophys. Acta, 384, 430 (1975). The reaction medium contained 50 mM Tris-HCl, pH 7.5, 5 mM magnesium acetate, 250 μg/ml 5′-Nucleotidase, 1 mM EGTA, and 0.15 μM 8-[H^3]-cGMP. Unless otherwise indicated, the enzyme used was a human recombinant PDE5 (ICOS Corp., Bothell, Wash.).
Compounds of the invention were dissolved in DMSO finally present at 2% in the assay.

Each structure is given as a SMILES string.

The IC50 is the concentration that gives 50% inhibition. Regarding `COc1ccc([C@@H]2c3[nH]c4ccccc4c3C[C@H]3C(=O)N(Cc4ccccc4)CN23)cc1` (racemic) [Example 12, (+−, cis)-2-Benzyl-10-(4-methoxyphenyl)-1,2,3a,4,9,10-hexahydro-2,9,10a-triazacyclopenta[b]fluoren-3-one], the concentration for half-maximal inhibition (IC50) on human recombinant PDE5 is 60 nM.

As to `O=C1CCN2[C@H](c3ccc4c(c3)OCO4)c3[nH]c4ccccc4c3C[C@H]12` (racemic) [Example 14, (+−, trans)-5-Benzo[1,3]dioxol-5-yl,2,3,5,6,11,11a-hexahydro-indolizino[6,7-b]indol-1-one], at human recombinant PDE5, the half-maximal inhibitory concentration (IC50) was 390 nM.

In the case of `CCCCN1C(=O)[C@@H]2Cc3c([nH]c4ccccc34)[C@H](c3ccc(OC)cc3)N2C1=S` (racemic) [Example 7, (+−, trans)-2-Butyl-10-(4-methoxyphenyl)-1-thioxo-1,2,3a,4,9,10-hexahydro-2,9,10a-triazacyclopenta-[b]fluoren-3-one], the half-maximal inhibitory concentration (IC50) at human recombinant PDE5 is 20 nM.

Consider `O=C1OC(=S)N2[C@H](c3ccc4c(c3)OCO4)c3[nH]c4ccccc4c3C[C@H]12` [Example 3, (3aR,10R)-10-Benzo[1,3]dioxol-5-yl-1-thioxo3a,4,9,10-tetrahydro-2-oxa-9,10a-diaza-cyclopenta[β]fluoren-3-one], for which the half-maximal inhibitory concentration (IC50) at human recombinant PDE5 is 53 nM.

As for `O=S1OCC2Cc3c([nH]c4ccccc34)C(c3ccc4c(c3)OCO4)N21` (centres unmarked) [Example 15, 10-Benzo[1,3]dioxol-5-yl-3a,4,9,10-tetrahydro-3H-2-oxa-1-thia-9,10a-diazacyclopenta[b]fluorene-1-oxide], the IC50 at human recombinant PDE5 came to 20 nM.

As for `O=C1OCC2Cc3c([nH]c4ccccc34)C(c3ccc4c(c3)OCO4)N12` (centres unmarked) [Example 13, 10-Benzo[1,3]dioxol-5-yl-3a,4,9,10-tetrahydro-3H-2-oxa-9,10a-diazacyclopenta[b]fluoren-1-one], at human recombinant PDE5, the concentration for half-maximal inhibition (IC50) came to 70 nM.

Regarding `CN1C[C@@H]2Cc3c([nH]c4ccccc34)[C@H](c3ccc4c(c3)OCO4)N2C1=O` (racemic) [Example 11, (+−, cis)-10-Benzo[1,3]dioxol-5-yl-2-methyl-2,3,3a,4,9,10-hexahydro-2,9,10a-triazacyclopenta[b]fluoren-1-one], on human recombinant PDE5, the IC50 worked out at 60 nM.

Broadly, the melting point is the temperature of the solid-liquid transition. Regarding `O=C1OC(=O)N2[C@H](c3ccc4c(c3)OCO4)c3[nH]c4ccccc4c3C[C@H]12` [Example 1, (3aR,10R)-(+)-10-Benzo[1,3]dioxol-5-yl-3a,4,9,10-tetrahydro-2-oxa-9,10a-diaza-cyclopenta[β]fluorene-1,3-dione], the melting point lay within 197 to 202 °C. On human recombinant PDE5, the 50% inhibitory concentration (IC50) is 205 nM.

Regarding `CN1C(=O)[C@@H]2Cc3c([nH]c4ccccc34)[C@@H](c3ccc4c(c3)OCO4)N2C1=S` [Example 6, (3aS,10R)-10-Benzo(1,3)dioxol-5-yl-2-methyl-1-thioxo-1,2,3a,4,9,10-hexahydro-2,9,10a-triazacyclopenta[b]fluoren-3-one], the melting point is 234 to 236 °C. In addition, at human recombinant PDE5, the 50% inhibitory concentration (IC50) is 12 nM.

As for `CN1C(=O)N2[C@H](c3ccc4c(c3)OCO4)c3[nH]c4ccccc4c3C[C@H]2C1=S` [Example 5, (3aS,10R)-10-Benzo(1,3)dioxol-5-yl-2-methyl-3-thioxo-2,3,3a,4,9,10-hexahydro-2,9,10a-triazacyclopenta[b]fluoren-1-one], the melting point lay in the range of 168 to 174 °C. Moreover, on human recombinant PDE5, the half-inhibitory concentration (IC50) stood at 12 nM.

Consider `O=C1CC(=O)N2C1Cc1c([nH]c3ccccc13)C2c1ccc2c(c1)OCO2` (centres unmarked) [Example 9, 5-Benzo[1,3]dioxol-5-yl-5,6,11,11a-tetrahydroindolizino[6,7-b]indole-1,3-dione], for which, at human recombinant PDE5, the IC50 amounted to 200 nM.
